Assay results as given in patent US20250214996A1, “SALTS AND SOLID FORMS OF AN ESTROGEN RECEPTOR ANTAGONIST” (Olema Pharmaceuticals, Inc., priority 2022, published 2025).

Assays:
Assay type in all cases: physicochemical
[1] = Dynamic vapor sorption (DVS) hygroscopicity
Experimental: Dynamic Vapor Sorption (DVS) was measured by a SMS (Surface Measurement Systems) DVS Intrinsic. Parameters for DVS test are listed below:
Alternatively, DVS was performed using Intrinsic DVS ([…], UK). About 30-50 mg of sample was placed in a sample basked and hung in the measuring chamber. For an isotherm test, the chamber temperature is maintained by a water bath at a constant 25±1° C. The sample was tested at a targeted RH from 0 to 90% full cycle in step mode. The analysis was performed in 10% RH increments. Time duration at each RH was set as 60 min so that the sample could reach equilibrium with the chamber environment. Data were collected in 20 s increments.
A DVS isotherm plot was collected at 25° C. to investigate the solid form stability as a function of humidity. For Compound 1 Fumarate Form A Anhydrate, solids were pre-equilibrated at 0% RH to remove the unbounded solvent or water before the hygroscopicity experiment was started.

[2] = Water solubility at RT, 24 hours, HPLC/pH/XRPD
Experimental: The HPLC method used for solubility measurements is summarized below:
Water solubility was measured in water at RT to evaluate solubility and disproportionation risk. […] After centrifugation, supernatants were collected for HPLC and pH tests, and wet cakes were collected for XRPD characterization.

[3] = Solubility by gravimetric method; conditions: H2O, 25° C.
Experimental: Solubility studies of Compound 1 and Compound 1 Fumarate in different solvents at 25° C. were performed. Solubility was measured by the dynamic method and gravimetric method.
Gravimetric method: Excess solids and a certain amount of solvent were added 8 mL vials, stirred for 24 hours, and filtered.

[4] = Stability in oven at 60° C. for two weeks
Experimental: Amorphous Compound 1, Compound 1 Fumarate Form E, and Compound 1 Fumarate Form A Anhydrate were placed in an oven at 60° C. for two weeks to evaluate their stability.

[5] = Competitive slurry of Fumarate Form E and Fumarate Form A Anhydrate (XRPD)
Experimental: Competitive slurry experiments were performed with Compound 1 Fumarate Form E and Compound 1 Fumarate Form A Anhydrate, as follows:
Experiment #1: Compound 1 Fumarate Form E (100 mg), Compound 1 Fumarate Form A Anhydrate (100 mg), and isopropanol (2 mL) were added into two 8-mL vials and mixed well in a shaker at 25° C. and 40° C., respectively. Samples for analysis were taken at 24 h and 72 h.
Experiment #2: Compound 1 Fumarate Form E (100 mg), Compound 1 Fumarate Form A Anhydrate (100 mg), and water (2 mL) were added into two 8-mL vials and mixed well in a shaker at 25° C. and 40° C., respectively. Samples for analysis were taken at 24 h and 72 h.
Experiment #3: Compound 1 Fumarate Form E (100 mg), Compound 1 Fumarate Form A Anhydrate (100 mg), and ethyl acetate (2 mL) were added into two 8-mL vials and mixed well in a shaker at 25° C. and 40° C., respectively. Samples for analysis were taken at 24 h and 72 h.

[6] = Slurry in isopropanol for 1 day (XRPD)

For CCCN1CC(Oc2ccc([C@@H]3c4[nH]c5ccccc5c4C[C@@H](C)N3CC(C)(C)F)cc2)C1.O=C(O)/C=C/C(=O)O [Compound 1 Fumarate Form A Anhydrate], the “hygroscopicity by DVS” value ([1]; DVS) was “non-hygroscopic”, the “water uptake up to 80% RH” value ([1]; DVS isotherm at 25° C.) was “less than 0.20%” and the “Form Change after DVS?” value ([1]; XRPD before and after DVS) was “No”. The “Hygroscopicity (%)* (class)” value ([1]; based on water uptake at 25° C./80% RH) was “Non-hygroscopic”, the “Hygroscopicity (%)* (water uptake)” value ([1]; water uptake at 25° C./80% RH) was “(0.108) %” and the Purity ([2]; HPLC after 24 hours in water at RT) was ~100%. For the same molecule, the pH ([2]; supernatant after 24 hours in water at RT) was 5.24, the “Solubility in Water” value ([2]; water, RT, 24 hours, stirring at 400 rpm) was 2230 µg/mL and the “Form Change after 24 h?” value ([2]; wet cake XRPD after 24 hours in water at RT) was “No”. For the same molecule, the “Solubility” value [3] was 6500 µg/mL, the “HPLC Purity (%) Starting” value ([4]; before storage) was 99.58% and the XRPD ([4]; form after oven at 60° C. for two weeks) was “No change”. The “HPLC Purity (%) 60° C.” value ([4]; oven at 60° C. for two weeks) was 99.54%, the “HPLC Purity (%) Degradation” value ([4]; oven at 60° C. for two weeks) was −0.04% and the “stability relative to Amorphous Compound 1” value ([4]; oven at 60° C. for two weeks) was “improved stability”. The “competitive slurry outcome (XRPD)” value ([5]; ethyl acetate, 72 h at 25° C. or 40° C.) was “a mixture of Compound 1 Fumarate Form E and Compound 1 Fumarate Form A Anhydrate remained”, the “competitive slurry outcome (XRPD)” value ([5]; isopropanol, 24 h at 25° C. or 40° C.) was “completely transformed into Compound 1 Fumarate Form E” and the “competitive slurry outcome (XRPD)” value ([5]; water, 72 h at 25° C. or 40° C.) was “a mixture of Compound 1 Fumarate Form E and Compound 1 Fumarate Form A Anhydrate remained”. For the same molecule, the “form after slurrying (XRPD)” value [6] was “No change in form”.
